Data published in ChEMBL document CHEMBL4184118, “Carbazole-containing amides and ureas: Discovery of cryptochrome modulators as antihyperglycemic agents” (Bioorg Med Chem Lett, 2018).
≈ marks a conversion by molar mass, not a printed value. Calls of active or inactive are those of the source. No cut-off for these calls is given here.

How the values were obtained:
[1] = Kinetic solubility in simulated gastric fluid; assay type: physicochemical; details: read-out: Kinetic_solubility
[2] = MRT in db/db mouse at 30 mg/kg, po qd after 1 to 24 hrs; assay type: ADME, organism-based; details: in vivo
[3] = Half life in db/db mouse at 30 mg/kg, po qd; assay type: ADME, organism-based; details: in vivo
[4] = Total Cmax in db/db mouse at 30 mg/kg, po qd after 1 to 24 hrs; assay type: ADME, organism-based; design: dose 30 mg/kg, route oral; details: in vivo
Mus musculus [5] = test: Unbound Cmax in db/db mouse at 30 mg/kg, po qd after 1 to 24 hrs; assay type: ADME, organism-based; details: in vivo
[6] = target: Voltage-gated inwardly rectifying potassium channel KCNH2 (Homo sapiens, UniProt Q12809); test: Inhibition of human ERG
Sequence of Voltage-gated inwardly rectifying potassium channel KCNH2 (Q12809 whole entry): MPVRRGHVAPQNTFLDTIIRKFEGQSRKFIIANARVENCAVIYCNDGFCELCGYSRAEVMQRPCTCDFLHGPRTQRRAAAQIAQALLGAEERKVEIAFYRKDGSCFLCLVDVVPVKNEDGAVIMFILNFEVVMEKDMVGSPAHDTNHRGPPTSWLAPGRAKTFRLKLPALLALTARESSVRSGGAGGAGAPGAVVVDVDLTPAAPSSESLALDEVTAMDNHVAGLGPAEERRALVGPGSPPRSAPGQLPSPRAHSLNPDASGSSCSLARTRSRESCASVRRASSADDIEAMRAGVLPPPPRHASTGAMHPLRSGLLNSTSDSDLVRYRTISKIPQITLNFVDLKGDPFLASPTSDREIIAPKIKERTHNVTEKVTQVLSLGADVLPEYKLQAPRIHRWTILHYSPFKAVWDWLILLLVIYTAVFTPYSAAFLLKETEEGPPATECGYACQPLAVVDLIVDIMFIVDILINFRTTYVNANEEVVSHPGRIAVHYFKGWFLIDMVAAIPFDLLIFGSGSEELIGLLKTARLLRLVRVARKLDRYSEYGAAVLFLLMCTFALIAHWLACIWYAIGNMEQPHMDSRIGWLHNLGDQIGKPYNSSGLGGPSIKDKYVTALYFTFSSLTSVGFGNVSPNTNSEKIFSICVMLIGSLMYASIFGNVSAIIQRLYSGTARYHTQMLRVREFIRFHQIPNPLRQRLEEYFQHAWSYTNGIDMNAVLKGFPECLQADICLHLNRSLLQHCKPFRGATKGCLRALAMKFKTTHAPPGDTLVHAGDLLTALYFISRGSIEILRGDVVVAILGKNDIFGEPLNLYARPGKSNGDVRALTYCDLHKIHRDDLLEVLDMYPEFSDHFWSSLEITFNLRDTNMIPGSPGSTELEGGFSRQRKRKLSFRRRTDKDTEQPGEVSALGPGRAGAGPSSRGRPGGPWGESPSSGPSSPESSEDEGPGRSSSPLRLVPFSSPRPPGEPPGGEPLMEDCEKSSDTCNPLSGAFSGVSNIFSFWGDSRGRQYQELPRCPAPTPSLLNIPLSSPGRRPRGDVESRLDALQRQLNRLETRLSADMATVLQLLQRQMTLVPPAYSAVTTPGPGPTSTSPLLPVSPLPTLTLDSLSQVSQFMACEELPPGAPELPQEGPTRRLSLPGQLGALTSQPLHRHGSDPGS

Salmonella typhimurium = test: Genotoxicity in Salmonella typhimurium by Ames test; assay type: toxicity, organism-based; details: salmonella enterica subsp. enterica serovar typhimurium
Mus musculus [7] = test: Antidiabetic activity in obese insulin-resistant db/db mouse assessed as reduction in blood glucose AUC at 100 mg/kg, po qd dosed for 7 days by oGTT relative to control; assay type: functional; design: scale not given: the % may be the effect or the level left
Mus musculus [8] = test: Antidiabetic activity in obese insulin-resistant po dosed db/db mouse assessed as reduction in blood glucose AUC administered qd for 7 days by oGTT; assay type: functional, organism-based
Mus musculus [9] = test: Hypoglycemic activity in obese insulin-resistant db/db mouse assessed as decrease in fasting blood glucose level at 100 mg/kg, po qd dosed for 7 days relative to control; assay type: functional; design: scale not given: the % may be the effect or the level left
[10] = Plasma concentration in db/db mouse at 30 mg/kg, po measured at 1 to 24 hrs; assay type: ADME, organism-based; details: in vivo
[11] = Drug uptake in db/db mouse liver at 30 mg/kg, po measured at 1 to 24 hrs; assay type: ADME, organism-based; details: in vivo
[12] = Drug uptake in db/db mouse white adipose at 30 mg/kg, po measured at 1 to 24 hrs; assay type: ADME, organism-based, White adipose tissue; details: in vivo
[13] = Drug uptake in db/db mouse brown adipose at 30 mg/kg, po measured at 1 to 24 hrs; assay type: ADME, organism-based, Brown adipose tissue; details: in vivo
[14] = Drug uptake in db/db mouse skeletal muscle at 30 mg/kg, po measured at 1 to 24 hrs; assay type: ADME, organism-based, Skeletal muscle tissue; details: in vivo
Mus musculus [15] = test: In vivo induction of circadian clock modulation in db/db mouse at 30 mg/kg, po; assay type: functional, organism-based

solubility kinetic [1]: 142 µM (≈ 48.9 µg/mL)
MRT [2]: 6.76 h
half-life [3]: 2.83 h
Cmax [4]: 1090 nM
fCmax (Mus musculus [5]): 0.056 µM
Drug uptake [10]: Active
Drug uptake [11]: Active
Drug uptake [12]: Active
Drug uptake [13]: Active
Drug uptake [14]: Active
SMILES: O=C1NCCN1CC(O)Cn1c2ccc(F)cc2c2cc(F)ccc21 (stereo unspecified)
inhibition (INH) [6]: Not Active
Activity (Salmonella typhimurium): Non-Toxic
Activity (Mus musculus [7]): 39%
Activity (Mus musculus [8]): Dose-dependent effect
Activity (Mus musculus [9]): 14%
Activity (Mus musculus [15]): Active
